# Measurements: patent publication US4321381A, “Ergot derivatives” (Farmitalia Carlo Erba S.p.A., priority 1978, dated 1982)
# Assays:
# [1] = tested on: male mice; test: Acute toxicity (LD50) in mice; assay type: in vivo, mouse; conditions: oral, observed for seven days, 10080 min
# Source text: Evaluation of the Toxicity (LD50)
# Ten male mice for each group were orally treated with drugs at different dose levels for the determination of lethal dose 50 (LD50).
# [2] = tested on: spontaneously hypertensive male rats, strain MHS; test: Anti-hypertensive activity in the spontaneously hypertensive rat (MHS): blood pressure and heart rate at the tail; assay type: in vivo
# [3] = 100 mg/kg os, first day, 1 hr after dose
structure (smiles),measurement,setting,value
"C[C@](N)(Cc1ccc(O)c(O)c1)C(=O)O [α-methyl-DOPA, reference compound]",LD50,[1],5300 mg/kg per os
same,"Change in HR, 1 hr after dose, first day","[2]; 30 mg/kg os, first day, 1 hr after dose",+40 b/min
same,"Change in HR, 5 hr after dose, first day","[2]; 30 mg/kg os, first day, 5 hr after dose",+15 b/min
same,"Change in BP, 5 hrs after dose, first day","[2]; 30 mg/kg os, first day",-12 mm Hg
same,"Change in BP, 1 hr after dose, fourth day","[2]; 30 mg/kg os, 1 hr after dose",-12 mm Hg
same,"Change in HR, 1 hr after dose, fourth day","[2]; 30 mg/kg os, 1 hr after dose",+57 b/min
same,"Change in HR, 5 hr after dose, fourth day","[2]; 30 mg/kg os, 5 hr after dose",-18 b/min
same,"Change in BP, 5 hrs after dose, fourth day",[2]; 30 mg/kg os,-19 mm Hg
same,"Change in BP, 1 hr after dose, first day",[2]; [3],+5 mm Hg
same,"Change in HR, 1 hr after dose, first day",[2]; [3],+87 b/min
same,"Change in BP, 5 hrs after dose, first day","[2]; 100 mg/kg os, first day",-38 mm Hg
same,"Change in BP, 1 hr after dose, fourth day","[2]; 100 mg/kg os, 1 hr after dose",-41 mm Hg
same,"Change in HR, 1 hr after dose, fourth day","[2]; 100 mg/kg os, 1 hr after dose",+77 b/min
same,"Change in HR, 5 hr after dose, fourth day","[2]; 100 mg/kg os, 5 hr after dose",+37 b/min
same,"Change in BP, 5 hrs after dose, fourth day",[2]; 100 mg/kg os,-53 mm Hg
same,"variation of the heart rate (HR), in words",[2]; Table 2,greatly increases it
